How the values were obtained:
smartweed = assay: Test H postemergence greenhouse plant response rating 0 to 10; type: in vivo, Polygonum pensylvanicum; conditions: 0 to 10 scale (0 no effect, 10 complete control)
From the text: (§1) Seeds of barnyardgrass (Echinochloa crus-galli), black nightshade (Solanum ptycanthum dunal), cocklebur (Xanthium pensylvanicum), common ragweed (Ambrosia elatior), corn (Zea mays), cotton (Gossypium hirsutam), crabgrass (Digitaria spp.), giant foxtail (Setaria faberii), jimsonweed (Datura stramonium), johnson grass (Sorghum halepense), morningglory (Ipomoea spp.), smartweed (Polygonum pensylvanicum), soybean (Glycine max), velvetleaf (Abutilon theophrasti) and purple nutsedge (Cyperus rotundus) tubers were planted into a silt loam soil. These crops and weeds were grown in the greenhouse until the plants ranged in height from two to eighteen cm (one to four leaf stage), then treated postemergence with the test chemicals dissolved in a non-phytotoxic solvent. Pots receiving these postemergence treatments were placed in the greenhouse and maintained according to routine greenhouse procedures. Treated plants and untreated controls were maintained in the greenhouse approximately 21 days after application of the test compound. Visual evaluations of plant injury responses were then recorded.

jimsonweed = assay: as above; type: in vivo, Datura stramonium; conditions: 0 to 10 scale (0 no effect, 10 complete control)
From the text: as §1

johnson grass = assay: as above; type: in vivo, Sorghum halepense; conditions: 0 to 10 scale (0 no effect, 10 complete control)
From the text: as §1

cocklebur [1] = assay: as above; type: in vivo, Xanthium pensylvanicum; conditions: 0 to 10 scale (0 no effect, 10 complete control)
From the text: as §1

cotton = assay: as above; type: in vivo, Gossypium hirsutam; conditions: 0 to 10 scale (0 no effect, 10 complete control)
From the text: as §1

morningglory [2] = assay: as above; type: in vivo, Ipomoea spp.; conditions: 0 to 10 scale (0 no effect, 10 complete control)
From the text: as §1

barnyardgrass [3] = assay: as above; type: in vivo, Echinochloa crus-galli; conditions: 0 to 10 scale (0 no effect, 10 complete control)
From the text: as §1

common ragweed = assay: as above; type: in vivo, Ambrosia elatior; conditions: 0 to 10 scale (0 no effect, 10 complete control)
From the text: as §1

purple nutsedge = assay: as above; type: in vivo, Cyperus rotundus; conditions: 0 to 10 scale (0 no effect, 10 complete control)
From the text: as §1

corn = assay: as above; type: in vivo, Zea mays; conditions: 0 to 10 scale (0 no effect, 10 complete control)
From the text: as §1

soybean = assay: as above; type: in vivo, Glycine max; conditions: 0 to 10 scale (0 no effect, 10 complete control)
From the text: as §1

crabgrass [4] = assay: as above; type: in vivo, Digitaria spp.; conditions: 0 to 10 scale (0 no effect, 10 complete control)
From the text: as §1

black nightshade = assay: as above; type: in vivo, Solanum ptycanthum dunal; conditions: 0 to 10 scale (0 no effect, 10 complete control)
From the text: as §1

giant foxtail [5] = assay: as above; type: in vivo, Setaria faberii; conditions: 0 to 10 scale (0 no effect, 10 complete control)
From the text: as §1

velvetleaf [6] = assay: as above; type: in vivo, Abutilon theophrasti; conditions: 0 to 10 scale (0 no effect, 10 complete control)
From the text: as §1

giant foxtail [7] = assay: Test A preemergence/postemergence greenhouse plant response rating 0 to 10; type: in vivo, Setaria faberii; conditions: 0 to 10 scale, 0 is no effect, 10 is complete control
Description: (§2) Seeds of barnyardgrass (Echinochchloa crus-galli), cheatgrass (Bromus secalinus), cocklebur (Xanthium pensylvanicum), crabgrass (Digitaria spp.), giant foxtail (Setaria faberii), morningglory (Ipomoea spp.), sorghum (Sorghum bicolor), velvetleaf (Abutilon theophrasti), and wild oat (Avena fatua) were planted into a sandy loam soil and treated preemergence with test chemicals dissolved in a non-phytotoxic solvent. At the same time, these crop and weed species were also treated postemergence with test chemicals. Plants ranged in height from two to eighteen cm and were in the two to three leaf stage for the postemergence treatment. Treated plants and untreated controls were maintained in a greenhouse for approximately eleven days, after which all treated plants were compared to untreated controls and visually evaluated for injury. Plant response ratings, summarized in Table A, are based on a 0 to 10 scale where 0 is no effect and 10 is complete control. A dash (-) response means no test results.

velvetleaf [8] = assay: as above; type: in vivo, Abutilon theophrasti; conditions: 0 to 10 scale, 0 is no effect, 10 is complete control
Description: as §2

cocklebur [9] = assay: as above; type: in vivo, Xanthium pensylvanicum; conditions: 0 to 10 scale, 0 is no effect, 10 is complete control
Description: as §2

barnyardgrass [10] = assay: as above; type: in vivo, Echinochchloa crus-galli; conditions: 0 to 10 scale, 0 is no effect, 10 is complete control
Description: as §2

sorghum = assay: as above; type: in vivo, Sorghum bicolor; conditions: 0 to 10 scale, 0 is no effect, 10 is complete control
Description: as §2

cheatgrass = assay: as above; type: in vivo, Bromus secalinus; conditions: 0 to 10 scale, 0 is no effect, 10 is complete control
Description: as §2

wild oat = assay: as above; type: in vivo, Avena fatua; conditions: 0 to 10 scale, 0 is no effect, 10 is complete control
Description: as §2

morningglory [11] = assay: as above; type: in vivo, Ipomoea spp.; conditions: 0 to 10 scale, 0 is no effect, 10 is complete control
Description: as §2

crabgrass [12] = assay: as above; type: in vivo, Digitaria spp.; conditions: 0 to 10 scale, 0 is no effect, 10 is complete control
Description: as §2

For `C#CCN1C(=O)COc2cc(F)c(-c3nn4c(c3Cl)CCCC4)cc21` [Compound 34], the “Smartweed plant response rating” value (smartweed; Rate 4 g/ha) was 5, the “Smartweed plant response rating” value (smartweed; Rate 8 g/ha) was 7 and the “Smartweed plant response rating” value (smartweed; Rate 16 g/ha) was 8. The “Jimson weed plant response rating” value (jimsonweed; Rate 4 g/ha) was 10, the “Jimson weed plant response rating” value (jimsonweed; Rate 8 g/ha) was 10 and the “Jimson weed plant response rating” value (jimsonweed; Rate 16 g/ha) was 10. For the same compound, the “Johnson Grass plant response rating” value (johnson grass; Rate 4 g/ha) was 0, the “Johnson Grass plant response rating” value (johnson grass; Rate 8 g/ha) was 0 and the “Johnson Grass plant response rating” value (johnson grass; Rate 16 g/ha) was 0. The “Cocklebur plant response rating” value (cocklebur [1]; Rate 4 g/ha) was 5, the “Cocklebur plant response rating” value (cocklebur [1]; Rate 8 g/ha) was 10 and the “Cocklebur plant response rating” value (cocklebur [1]; Rate 16 g/ha) was 10. For the same compound, the “Cotton plant response rating” value (cotton; Rate 4 g/ha) was 10, the “Cotton plant response rating” value (cotton; Rate 8 g/ha) was 10 and the “Cotton plant response rating” value (cotton; Rate 16 g/ha) was 10. For the same compound, the “Morningglory plant response rating” value (morningglory [2]; Rate 4 g/ha) was 10, the “Morningglory plant response rating” value (morningglory [2]; Rate 8 g/ha) was 10 and the “Morningglory plant response rating” value (morningglory [2]; Rate 16 g/ha) was 10. For the same compound, the “Barnyardgrass plant response rating” value (barnyardgrass [3]; Rate 4 g/ha) was 0, the “Barnyardgrass plant response rating” value (barnyardgrass [3]; Rate 8 g/ha) was 0 and the “Barnyardgrass plant response rating” value (barnyardgrass [3]; Rate 16 g/ha) was 0. For the same compound, the “Common Ragweed plant response rating” value (common ragweed; Rate 4 g/ha) was 0, the “Common Ragweed plant response rating” value (common ragweed; Rate 8 g/ha) was 1 and the “Common Ragweed plant response rating” value (common ragweed; Rate 16 g/ha) was 2. The “Nutsedge plant response rating” value (purple nutsedge; Rate 4 g/ha) was 0, the “Nutsedge plant response rating” value (purple nutsedge; Rate 8 g/ha) was 0 and the “Nutsedge plant response rating” value (purple nutsedge; Rate 16 g/ha) was 0. The “Corn G4689A plant response rating” value (corn; Rate 4 g/ha) was 1, the “Corn G4689A plant response rating” value (corn; Rate 8 g/ha) was 1 and the “Corn G4689A plant response rating” value (corn; Rate 16 g/ha) was 2. For the same compound, the “Soybean plant response rating” value (soybean; Rate 4 g/ha) was 7, the “Soybean plant response rating” value (soybean; Rate 8 g/ha) was 7 and the “Soybean plant response rating” value (soybean; Rate 16 g/ha) was 10. The “Crabgrass plant response rating” value (crabgrass [4]; Rate 4 g/ha) was 0, the “Crabgrass plant response rating” value (crabgrass [4]; Rate 8 g/ha) was 0 and the “Crabgrass plant response rating” value (crabgrass [4]; Rate 16 g/ha) was 0. The “Black Nightshade plant response rating” value (black nightshade; Rate 4 g/ha) was 5, the “Black Nightshade plant response rating” value (black nightshade; Rate 8 g/ha) was 10 and the “Black Nightshade plant response rating” value (black nightshade; Rate 16 g/ha) was 10. The “Giant Foxtail plant response rating” value (giant foxtail [5]; Rate 4 g/ha) was 0, the “Giant Foxtail plant response rating” value (giant foxtail [5]; Rate 8 g/ha) was 0 and the “Giant Foxtail plant response rating” value (giant foxtail [5]; Rate 16 g/ha) was 0. For the same compound, the “Velvetleaf plant response rating” value (velvetleaf [6]; Rate 4 g/ha) was 10, the “Velvetleaf plant response rating” value (velvetleaf [6]; Rate 8 g/ha) was 10 and the “Velvetleaf plant response rating” value (velvetleaf [6]; Rate 16 g/ha) was 10.

For `Clc1ccc(-c2nc3n(c2Br)CCCC3)c(Cl)c1` [Compound 2], the “Plant response rating, Giant foxtail” value (giant foxtail [7]; POSTEMERGENCE, Rate 2000 g/ha) was 9, the “Plant response rating, Giant foxtail” value (giant foxtail [7]; PREEMERGENCE, Rate 2000 g/ha) was 10 and the “Plant response rating, Velvetleaf” value (velvetleaf [8]; POSTEMERGENCE, Rate 2000 g/ha) was 10. For the same compound, the “Plant response rating, Velvetleaf” value (velvetleaf [8]; PREEMERGENCE, Rate 2000 g/ha) was 10, the “Plant response rating, Cocklebur” value (cocklebur [9]; POSTEMERGENCE, Rate 2000 g/ha) was 10 and the “Plant response rating, Cocklebur” value (cocklebur [9]; PREEMERGENCE, Rate 2000 g/ha) was 0. The “Plant response rating, Barnyardgrass” value (barnyardgrass [10]; POSTEMERGENCE, Rate 2000 g/ha) was 9, the “Plant response rating, Barnyardgrass” value (barnyardgrass [10]; PREEMERGENCE, Rate 2000 g/ha) was 9 and the “Plant response rating, Sorghum” value (sorghum; POSTEMERGENCE, Rate 2000 g/ha) was 6. The “Plant response rating, Sorghum” value (sorghum; PREEMERGENCE, Rate 2000 g/ha) was 8, the “Plant response rating, Cheatgrass” value (cheatgrass; POSTEMERGENCE, Rate 2000 g/ha) was 7 and the “Plant response rating, Cheatgrass” value (cheatgrass; PREEMERGENCE, Rate 2000 g/ha) was 6. The “Plant response rating, Wild oats” value (wild oat; POSTEMERGENCE, Rate 2000 g/ha) was 5, the “Plant response rating, Wild oats” value (wild oat; PREEMERGENCE, Rate 2000 g/ha) was 5 and the “Plant response rating, Morningglory” value (morningglory [11]; POSTEMERGENCE, Rate 2000 g/ha) was 10. The “Plant response rating, Morningglory” value (morningglory [11]; PREEMERGENCE, Rate 2000 g/ha) was 2, the “Plant response rating, Crabgrass” value (crabgrass [12]; POSTEMERGENCE, Rate 2000 g/ha) was 7 and the “Plant response rating, Crabgrass” value (crabgrass [12]; PREEMERGENCE, Rate 2000 g/ha) was 8.

In the case of `Clc1ccc(-c2nc3n(c2Cl)CCC=C3)c(Cl)c1` [Compound 1], the “Plant response rating, Giant foxtail” value (giant foxtail [7]; POSTEMERGENCE, Rate 1000 g/ha) is reported as 4, the “Plant response rating, Giant foxtail” value (giant foxtail [7]; PREEMERGENCE, Rate 1000 g/ha) is reported as 5 and the “Plant response rating, Velvetleaf” value (velvetleaf [8]; POSTEMERGENCE, Rate 1000 g/ha) is reported as 10. The “Plant response rating, Velvetleaf” value (velvetleaf [8]; PREEMERGENCE, Rate 1000 g/ha) was 8, the “Plant response rating, Cocklebur” value (cocklebur [9]; POSTEMERGENCE, Rate 1000 g/ha) was 8 and the “Plant response rating, Cocklebur” value (cocklebur [9]; PREEMERGENCE, Rate 1000 g/ha) was 0. The “Plant response rating, Barnyardgrass” value (barnyardgrass [10]; POSTEMERGENCE, Rate 1000 g/ha) was 5, the “Plant response rating, Barnyardgrass” value (barnyardgrass [10]; PREEMERGENCE, Rate 1000 g/ha) was 2 and the “Plant response rating, Sorghum” value (sorghum; POSTEMERGENCE, Rate 1000 g/ha) was 4. For the same compound, the “Plant response rating, Sorghum” value (sorghum; PREEMERGENCE, Rate 1000 g/ha) was 0, the “Plant response rating, Cheatgrass” value (cheatgrass; POSTEMERGENCE, Rate 1000 g/ha) was 4 and the “Plant response rating, Cheatgrass” value (cheatgrass; PREEMERGENCE, Rate 1000 g/ha) was 0. For the same compound, the “Plant response rating, Wild oats” value (wild oat; POSTEMERGENCE, Rate 1000 g/ha) was 3, the “Plant response rating, Wild oats” value (wild oat; PREEMERGENCE, Rate 1000 g/ha) was 0 and the melting point was 104 to 105 °C. The “Plant response rating, Morningglory” value (morningglory [11]; POSTEMERGENCE, Rate 1000 g/ha) was 10, the “Plant response rating, Morningglory” value (morningglory [11]; PREEMERGENCE, Rate 1000 g/ha) was 0 and the “Plant response rating, Crabgrass” value (crabgrass [12]; POSTEMERGENCE, Rate 1000 g/ha) was 5. For the same compound, the “Plant response rating, Crabgrass” value (crabgrass [12]; PREEMERGENCE, Rate 1000 g/ha) was 0.
